A word on the AC50: it is the midpoint of the concentration-response curve, whichever way the signal moves.

Calls of active or inactive are those of the source. How the calls were made is not given here.

The test has as its target V. cholerae BH1651 luxOD47E, luciferase light induction, 6 h. Put plainly: Quorum luxo inducers, light production, v cholerae bh1651 luxod47e, confirmatory dose response (AID 624254).
On to `CCOC(=O)C1=C(C)N=C2SCCC(=O)N2C1c1cc(Br)ccc1OC` (centres undefined), for which the AC50 was 0.0354 µM.

Turning to `O=C(COC(=O)/C=C/c1ccccc1)NC1CCCC1`, the AC50 was > 50 µM (inactive).

Regarding `CCn1nc(NC(=O)c2ccco2)c2cc3ccccc3nc21`, the AC50 is 2.36 µM.

In the case of `CC(=O)c1cccc(NC(=O)CSc2nc(=O)n(CCCN3CCOCC3)c3c2CCC3)c1`, the AC50 was 0.18 µM.

In the case of `C[C@H](CO)N1C[C@H](C)[C@@H](CN(C)S(=O)(=O)c2cccs2)Oc2c(NC(=O)Nc3ccc4c(c3)OCO4)cccc2C1=O`, the AC50 is 1.18 µM.

For `CCCS(=O)(=O)N1CCC(C(=O)N2CCN(C(=O)OCC)CC2)CC1`, the AC50 was > 50 µM (inactive).

`COc1cccc(OCC(=O)NC2CCCCC2)c1`: the AC50 is 2.43 µM.

On to `COc1ccc(Cl)cc1S(=O)(=O)NC(C)C(=O)NCCCn1ccnc1` (centres undefined), for which the AC50 is 0.18 µM.

On to `CCCOc1ccc(-c2nc(OC)c3ccccc3n2)cc1`, for which the AC50 is 7.01 µM.

Take `CCOc1ccc(CNC(=O)c2ccco2)cc1`: the AC50 is 35.6 µM.

As to `Cc1noc(C)c1S(=O)(=O)Nc1ccc2c(c1)C(=O)N([C@H](C)CO)C[C@H](C)[C@@H](CN(C)Cc1ccc(C(=O)O)cc1)O2`, the AC50 was 18.8 µM.

Consider `Cc1cc2oc(=O)cc(-c3ccccc3)c2c(C)c1-c1ccc(C#N)cc1`, for which the half-maximal activity concentration (AC50) is 3.21 µM.

As for `CC(=O)Nc1ccc(N2CCCC2)cc1`, the AC50 was > 50 µM (inactive).

As for `COc1ccc(N2CCN(C(=O)COc3ccc4ccccc4c3)CC2)cc1`, the half-maximal activity concentration (AC50) is 35.1 µM.

Turning to `O=[N+]([O-])c1ccc(N(CCO)CCO)c2c1no[n+]2[O-]`, the AC50 was 1.2 µM.

For `O=C(CN1CCN(c2ccc(F)cc2)CC1)Nc1cc(C(F)(F)F)ccc1Cl`, the AC50 is > 50 µM (inactive).

On to `CC(=O)N1CCN(C(=O)COc2ccc(Br)cc2)CC1`, for which the AC50 was > 50 µM (inactive).

Take `CC(C)C(NC(=O)c1ccc(S(=O)(=O)N2CCOCC2)cc1)c1nc2ccccc2[nH]1` (centres undefined): the AC50 is 15.3 µM.

As to `Cc1ccc2nc(NCCc3ccccc3)c3nncn3c2c1`, the AC50 is 0.0681 µM.

Take `CCC(CC)c1nnc(NC(=O)COc2ccc3c(C)cc(=O)oc3c2)s1`: the AC50 is 0.0998 µM.

As to `C[C@H](CO)N1C[C@H](C)[C@@H](CN(C)S(=O)(=O)c2ccccc2)Oc2c(NC(=O)Nc3ccc(F)cc3)cccc2C1=O`, the AC50 is 1.91 µM.

Take `C=Cn1c(C(=O)O)ccc1-c1ccc(OC)cc1`: the AC50 is less than 0.38 µM.

With `COc1ccc(C)c2sc(N3CCCC3)nc12`, the AC50 was 1.52 µM.

Turning to `O=C(O)c1cccc(Nc2ncnc3c2cnn3-c2ccccc2)c1`, the AC50 was > 50 µM (inactive).

Take `CCn1nnnc1NCc1ccc(SC)cc1`: the AC50 is 0.188 µM.

As for `C[C@H](CO)N1C[C@H](C)[C@@H](CN(C)S(=O)(=O)c2ccccc2)Oc2c(NC(=O)Nc3ccccc3)cccc2C1=O`, the AC50 is 6.48 µM.

With `Cc1ccc(C)c(-n2c(Cc3cccs3)n[nH]c2=S)c1`, the concentration at half-maximal activity (AC50) is less than 0.0235 µM.

Regarding `CCCS(=O)(=O)N1CCCC(C(=O)N2CCN(c3ccccc3)CC2)C1` (centres undefined), the AC50 was 0.0413 µM.

With `O=C(Cn1cccc1C(=O)c1ccccc1)NCCN1CCCCCC1`, the AC50 was 25.6 µM.

Take `CC(C)(C)Cc1nc(-c2ccccn2)no1`: the AC50 was > 50 µM (inactive).

`CCC(C)n1cnc2c(=O)oc3ccccc3c21` (centres undefined): the AC50 was 0.149 µM.

In the case of `CC(C)c1ccc(CNc2nnnn2C)cc1`, the AC50 was 0.101 µM.

As to `CCCCCCCCOC(=O)C(NC(=O)CCC(=O)Nc1ccc(S(N)(=O)=O)cc1)C(O)c1ccccc1` (centres undefined), the AC50 was > 50 µM (inactive).

For the compound `Cc1noc(C)c1NC(=O)Nc1cccc2c1O[C@@H](CN(C)S(=O)(=O)c1cccs1)[C@H](C)CN([C@H](C)CO)C2=O`, the AC50 was 11.2 µM.

For the compound `CC(C)n1nnnc1SCC(=O)c1ccc2c(c1)OCCO2`, the half-maximal activity concentration (AC50) is 0.845 µM.

As for `COc1ccc(OCCOC(=O)CCS(=O)(=O)c2ccc(C)cc2)cc1`, the AC50 is 0.208 µM.

Consider `CCc1cc(C(=O)c2ccccc2OC)c(N)s1`, for which the AC50 is 0.802 µM.

For `CCOC(=O)c1cnc2nc(C(F)(F)F)[nH]n2c1=O`, the concentration at half-maximal activity (AC50) was 15.7 µM.

For the compound `O=C(c1cc2cc(Cl)ccc2oc1=O)N1CCOCC1`, the concentration at half-maximal activity (AC50) was 0.0678 µM.

`COc1ccc(CNc2nnnn2C)cc1`: the AC50 was 3.51 µM.

Consider `Cc1cccc(NC(=O)c2c(O)c3ccccc3n(C)c2=O)c1`, for which the AC50 was > 50 µM (inactive).

Regarding `Cc1cc(C)cc(NC(=O)Cn2ncn3c(cc4ccccc43)c2=O)c1`, the AC50 is 7.05 µM.

For `Cc1ccc(C(=O)OCC(=O)NCC(F)(F)F)cc1C`, the AC50 is 2.41 µM.

Consider `COc1ccc(NC(=O)CCS(=O)(=O)c2ccc3c(c2)CCCN3C(C)=O)cc1Cl`, for which the AC50 is 0.113 µM.

Take `CC(=O)Oc1ccc(-c2ccc(C(=O)O)cc2)cc1`: the AC50 was > 50 µM (inactive).

With `CC(C)Cn1c(CN2CCN(C)C(CCO)C2)nc2ccccc21` (centres undefined), the AC50 is > 50 µM (inactive).

Consider `CCc1ccc(NS(=O)(=O)c2cccs2)cc1`, for which the AC50 is 0.212 µM.

As for `O=C(CCN1C(=O)c2ccccc2C1=O)N1CCN(C2c3ccccc3-c3ccccc32)CC1`, the AC50 is 0.209 µM.

`CCOC(=O)c1cnc(-n2nc(C)cc2C)nc1N(C)C`: the AC50 is 0.0676 µM.

The values above are taken from PubChem BioAssay AID624254 (Broad Institute, 2012).
